Data on 34 molecules can be found in patent US20190290729A1, “PHARMACEUTICAL ASSOCIATION OF GROWTH FACTOR RECEPTOR AGONIST AND ADHESION PROTEIN INHIBITOR FOR CONVERTING A NEOPLASTIC CELL INTO A NON-NEOPLASTIC CELL AND USES THEREOF” (HISTIDE AG, priority 2015, published 2019).

Where no end group is shown, it is not given here.

Assay [1] concerns MG63 cells. Description: pRB phosphorylation level, immunofluorescence staining quantified with ImageJ, osteosarcoma cells. The following applies: MG63 cells; for pRB: Table 9, in association with SiRNA Integrin alpha 3+SiRNA Integrin beta 1 (SEQ ID NO: 141 to 163); for pRB (%): Table 4, cyclic GFR-binding peptide in association with SiRNA Integrin alpha 3 and SiRNA Integrin beta 1, 400 ng/mL, 24 hours. It counts as cell-based, human. The protocol:
(§1) The following starting materials and reagents were used: • Type-I collagen sponge was obtained from Sigma®. • PBS 1× was obtained from Gibco®. • MilliQ water: is water characterised in terms of resistivity (typically 18.2 MΩ·cm at 25° C.). • Low glucose Dulbecco's Modified Eagle Medium (DMEM) was obtained from Invitrogen® • Minimum Essential Medium Eagle without ascorbic acid (αMEM) was obtained from Invitrogen®. • All of the cell culture experiments were carried out without any serum in the medium for the first 8 hours of culture. • Osteosarcoma cells: MG63 cells were obtained from ATCC®. These cells were cultured in DMEM (Eagle's Minimum Essential Medium) medium supplemented with 10% fetal calf serum (FCS) and 1% penicillin/streptomycin. All cells were used at a low passage number (passage 10), were subconfluently cultured and were seeded at 10^4 cells/cm^2 for the purpose of the experiments. • Chondrosarcoma cells Hs819.T cells were obtained from ATCC®. These cells were cultured in DMEM (Eagle's Minimum Essential Medium) medium supplemented with 10% fetal calf serum (FCS) and 1% penicillin/streptomycin. All cells were used at a low passage number (passage 10), were subconfluently cultured and were seeded at 10^4 cells/cm^2 for the purpose of the experiments. • Rhabdomyosarcoma cells: A-673 cells were obtained from ATCC®. These cells were cultured in DMEM (Eagle's Minimum Essential Medium) medium supplemented with 10% fetal calf serum (FCS) and 1% penicillin/streptomycin. All cells were used at a low passage number (passage 10), were subconfluently cultured and were seeded at 10^4 cells/cm^2 for the purpose of the experiments. • Adenocarcinoma cells: HCC4006 cells were obtained from ATCC®. These cells were cultured in RPMI-1640 medium (obtained from ATCC®) supplemented with 10% fetal calf serum (FCS) and 1% penicillin/streptomycin. All cells were used at a low passage number (passage 10), were subconfluently cultured and were seeded at 10^4 cells/cm^2 for the purpose of the experiments. • CMFDA is a Cell Tracker Green obtained from Invitrogen®. • DAPI was obtained from Sigma®. • Fetal bovine serum (FBS) was obtained from Gibco®. • Penicillin/streptomycin was obtained from Invitrogen®. • The AlamarBlue® assay was obtained from Molecular Probes®. • Anti phospho-p53 antibody was obtained from Santa Cruz Biotechnology®, • Anti pRB antibody was obtained from Santa Cruz Biotechnology®, • Monoclonal anti-integrin (extracellular domain) αv, α5, α3, α4, β1, β3, β5 and β9 antibodies were obtained from Santa Cruz Biotechnology®, • Cell cytoskeletal filamentous actin (F-actin) was visualized by Alexa Fluor® 488 phalloidin Sigma® labeling. • Monoclonal anti-vinculin antibody (clone hVIN-1, produced in mouse) was obtained from Sigma®.
(§2) • All of the peptides were synthetized using conventional solution and/or solid phase peptide synthesis methods. • All of the experiments were performed with a concentration of 400 ng/mL of GFR-binding compound(s) as defined herein. • All cell culture experiments were performed with cultures on plastic coated with type-I collagen in order to mimic the physiological conditions of the human body. • The compositions of pharmaceutical compositions used in the examples below are summarized in the following table:
(§3) The cells were first fixed for 20 min with 4% paraformaldehyde/PBS at 4° C. After fixation, the cells were permeabilized in PBS containing 1% Triton X-100 for 15 min. Protein immunofluorescent visualization was performed by first treating the cells with 1% (v/v) specific monoclonal antibodies for 1 hour at 37° C. Then the samples were incubated with Alexa Fluor® 568 or 647 (F(ab′)2 fragment of IgG(H+L)) during 30 min at room temperature. The cell nuclei were counterstained in 20 ng/mL DAPI for 10 min at room temperature.
(§4) For this type of quantification the freeware image analysis ImageJ® software was used. […]

The test system of assay [2] is MG63 cells. Description: p53 protein expression level, immunofluorescence staining quantified with ImageJ, osteosarcoma cells. It counts as cell-based, human. More on the design: P53: unit not given here. The following applies: for P53: Table 9, in association with SiRNA Integrin alpha 3+SiRNA Integrin beta 1 (SEQ ID NO: 141 to 163); for p53 (%): Table 4, cyclic GFR-binding peptide in association with SiRNA Integrin alpha 3 and SiRNA Integrin beta 1, 400 ng/mL, 24 hours. As to the method:
as §1, §2, §3, §4

In assay [3] the target is growth factor receptors. The assay can be described thus: cell-based or functional assay.

Consider “CGGGSSVPTELSAISTLYLDDYDKVILKKYRNM (Non-cyclic GFR-binding peptide) [SEQ ID NO: 161]”, for which the pRB in assay [1] is 10. This molecule yielded a P53 in assay [2] of 52.
Taken in the same sequence, the figures for “CKASSVPTELSPISTLYKDENEKVVLKYHYDMVVEGSGSR (Non-cyclic GFR-binding peptide) [SEQ ID NO: 156]” were 8 and 45.
Taken in the same sequence, the figures for “CKIPKASSVPTELNAISVLYFDENEKVILKKYRDMVVEGSG (Non-cyclic GFR-binding peptide) [SEQ ID NO: 144]” were 7 and 40.
In the case of “CKVGKASSVPTKLNAISTLYLDDSSNVILKNYQ (Non-cyclic GFR-binding peptide) [SEQ ID NO: 160]”, the pRB in assay [1] was 8. Also, the P53 in assay [2] amounted to 38.
The matching figures for “CKVGKASSVPTKLNAISTLYLDENEKVVLKKYREGMS (Non-cyclic GFR-binding peptide) [SEQ ID NO: 158]”: 9 and 39.
In the case of “CKVGKASSVPTKLSAISTLYLDDMGVPTLKNYQNMVVRASGSH (Non-cyclic GFR-binding peptide) [SEQ ID NO: 142]”, in assay [1], the pRB amounted to 8. The molecule further registered a P53 in assay [2] of 36.
Taken in the same sequence, the figures for “CKVPKASSVPTELSAISTLYLAAAALKNYQEM (Non-cyclic GFR-binding peptide) [SEQ ID NO: 152]” were 8 and 37.
In assay [1], “CKVPKPSSAPTQLSAISTLYLDEYDKVVLKNYQNMVVRA (Non-cyclic GFR-binding peptide) [SEQ ID NO: 141]” gave a pRB of 11. Further, the P53 in assay [2] is reported as 41.
Taken in the same sequence, the figures for “CPKPSSAPTQLNAISMLYFGGGGGGGLKKYRNMVVRA (Non-cyclic GFR-binding peptide) [SEQ ID NO: 151]” were 9 and 39.
In assay [1], “CPKPSSAPTQLSAISTLYLDDSSNVILKNYQMIVVRA (Non-cyclic GFR-binding peptide) [SEQ ID NO: 159]” displayed a pRB of 9. For the same molecule, the P53 in assay [2] is given as 44.
In turn, “CPSSAPTQLSATSVLYYDDSSNVILRKHRQHNK (Non-cyclic GFR-binding peptide) [SEQ ID NO: 150]” came in with a pRB in assay [1] of 11. The molecule further yielded a P53 in assay [2] of 41.
“CRNVQCRPTQVQLSAISTLYLEIVRKKPLKNYQTLEDH (Non-cyclic GFR-binding peptide) [SEQ ID NO: 149]” yielded a pRB in assay [1] of 12. The same molecule returned a P53 in assay [2] of 35.
The matching figures for “CSIPKASSVPTELSATSVLYYDEYDEKVVLRKHEMVVEG (Non-cyclic GFR-binding peptide) [SEQ ID NO: 153]”: 10 and 39.
Taken in the same sequence, the figures for “CTVPKPSSAPTQLSPISVLYKDDSSNVILKYHYNMVVRASGSH (Non-cyclic GFR-binding peptide) [SEQ ID NO: 147]” were 8 and 37.
As to “GTPGPKVPKPSSAPTQLSAISTLYLDEYDKVVLKNYQNMAVR (Non-cyclic GFR-binding peptide) [SEQ ID NO: 163]”, the pRB in assay [1] is listed as 7. For the same molecule, the P53 in assay [2] was 41.
In the case of “SRVAARSVKMAKVGGGGGGGKEVQVAAEEHGGGGGG (not fully specified; also: cyclic peptide) [SEQ ID NO: 38213]”, the “pRB (%)” value in assay [1] amounted to 21%. The “p53 (%)” value in assay [2] is 49%.
The matching figures for “SRVLLRPVQMRKIDKGVVTYKKATVLLEEHDKGVVTY (not fully specified; also: cyclic peptide) [SEQ ID NO: 38216]”: 11% and 41%.
On to “TPTSSSPINTLYFDDMGVPTYGKIPSSVVDDEYDKVV (not fully specified; also: cyclic peptide) [SEQ ID NO: 38207]”, for which, in assay [1], the “pRB (%)” value turned out to be 13%. In assay [2], the “p53 (%)” value came to 41%.
The matching figures for “TQVAARPVQTRKIDDMGVPTKKATVAAEDHDKGVVTY (not fully specified; also: cyclic peptide) [SEQ ID NO: 38217]”: 9% and 42%.
Taken in the same sequence, the figures for “VPEAASSLSMLFFEIVRKKPIFLKVYPAATVEDKGVVTY (not fully specified; also: cyclic peptide) [SEQ ID NO: 38201]” were 19% and 40%.
Taken in the same sequence, the figures for “VPQAAEPLPMLYYDKGVVTYEQLSNAAVRSDKGVVTY (also: cyclic peptide) [SEQ ID NO: 38210]” were 12% and 40%.
With “VPQQQEPLTTLYYDEYDKVVEQLSNQQVKSNDKQQII (also: cyclic peptide) [SEQ ID NO: 38211]”, the “pRB (%)” value in assay [1] came out at 14%. For the same molecule, the “p53 (%)” value in assay [2] is reported as 47%.
As for “VPTAAEPISMLYLDEYDKVVKFKYEAAAVSNDKQQII (also: cyclic peptide) [SEQ ID NO: 38206]”, the “pRB (%)” value in assay [1] is 8%. Moreover, in assay [2], the “p53 (%)” value came to 36%.
Regarding “VPTAASAISILYLDAANNVVLKNYQAAVVEDKGVVTY (also: cyclic peptide) [SEQ ID NO: 38200]”, the “pRB (%)” value in assay [1] stood at 17%. Besides, in assay [2], the “p53 (%)” value is recorded as 41%.
For “VPTDDSATSTLYYDKGVVTYLRKHRDDEHSDKGVVTY (also: cyclic peptide) [SEQ ID NO: 38214]”, in assay [1], the “pRB (%)” value came out at 18%. Besides, in assay [2], the “p53 (%)” value came to 48%.
Taken in the same sequence, the figures for “VPTGGEPLTTLYYNDKQQIIEQLSNGGEHSDDMGVPT (also: cyclic peptide) [SEQ ID NO: 38215]” were 16% and 39%.
Turning to “VPTMMSNITTQIMRIKPHQGQHIGEMSMMQHNDEYDKVV (also: cyclic peptide) [SEQ ID NO: 38212]”, the “pRB (%)” value in assay [1] was found to be 14%. Further, the “p53 (%)” value in assay [2] was 51%.
“VPTSSSPISTLYIDKGVVTYLKYHYSSVAEDEYDKVV (not fully specified; also: cyclic peptide) [SEQ ID NO: 38205]”: the “pRB (%)” value in assay [1] is 16%. The “p53 (%)” value in assay [2] is 40%.
The matching figures for “VPTVVSAISTLYLRIKPHQGQHLKNYQVVVVENDKQQII (also: cyclic peptide) [SEQ ID NO: 38202]”: 9% and 42%.
For the molecule “VPTVVSPISMLYIDDMGVPTYKQYEVVVVEDDMGVPT (also: cyclic peptide) [SEQ ID NO: 38208]”, the “pRB (%)” value in assay [1] was determined as 9%. Further, the “p53 (%)” value in assay [2] came out at 39%.
For the molecule “WWFWGKVPKPSSAPTQLSAISTLYLDEYDKVVLKNYQNMVVR (Non-cyclic GFR-binding peptide) [SEQ ID NO: 162]”, the pRB in assay [1] is reported as 8. In assay [2], this molecule yielded a P53 of 39.
In assay [3], RNVQCRPTQLEPLPIVYYEIVRKKPEQLSNTLEDHLA (not fully specified) [GFR-binding compound SEQ ID NO: 56] registered a p-Smad1/5/8 (%) of 47%.
The same measure, in the same setting: then ASASPSSVPQDLEPLTILYYVGRTPKVEQLSNMV [GFR-binding compound SEQ ID NO: 55], with 32%; and NDEGLECVPTEERPVQVRKIRIKPHQGQKKATVFLQHNK (not fully specified) [GFR-binding compound SEQ ID NO: 54], with 41%.
